Data from the NIST ThermoML archive (doi:10.1021/acs.jced.7b00564).
Numbers after ± are expanded uncertainties.

Test: xn = mol fraction of the nth substance listed
Settings: Gas, isochoric method

C=C(F)C(F)(F)F [2,3,3,3-tetrafluoro-1-propene] + CC(C)C
Settings | specific volume [m3/kg]
303.15 K, 163.5 kPa, x2 = 0.472 | 0.1698 ± 0.0015
303.15 K, 180.2 kPa, x2 = 0.606 | 0.1663 ± 0.001
303.15 K, 246.7 kPa, x2 = 0.234 | 0.0939 ± 0.0014
303.15 K, 260.6 kPa, x2 = 0.772 | 0.1279 ± 0.001
303.15 K, 269.3 kPa, x2 = 0.4 | 0.0942 ± 0.0015
308.15 K, 166.4 kPa, x2 = 0.472 | 0.1699 ± 0.0015
308.15 K, 183.3 kPa, x2 = 0.606 | 0.1664 ± 0.001
308.15 K, 251.2 kPa, x2 = 0.234 | 0.094 ± 0.0022
308.15 K, 265.4 kPa, x2 = 0.772 | 0.1279 ± 0.001
308.15 K, 274.3 kPa, x2 = 0.4 | 0.0942 ± 0.0015
308.15 K, 426.8 kPa, x2 = 0.85 | 0.0797 ± 0.001
313.15 K, 169.2 kPa, x2 = 0.472 | 0.1699 ± 0.0015
313.15 K, 186.5 kPa, x2 = 0.606 | 0.1664 ± 0.001
313.15 K, 255.6 kPa, x2 = 0.234 | 0.094 ± 0.0022
313.15 K, 270.2 kPa, x2 = 0.772 | 0.1279 ± 0.001
313.15 K, 279.2 kPa, x2 = 0.4 | 0.0943 ± 0.0015
313.15 K, 435.6 kPa, x2 = 0.85 | 0.0797 ± 0.001
318.15 K, 172.1 kPa, x2 = 0.472 | 0.17 ± 0.0014
318.15 K, 189.7 kPa, x2 = 0.606 | 0.1665 ± 0.0009
318.15 K, 260.1 kPa, x2 = 0.234 | 0.094 ± 0.0022
318.15 K, 275.1 kPa, x2 = 0.772 | 0.1279 ± 0.0009
318.15 K, 284.2 kPa, x2 = 0.4 | 0.0943 ± 0.0014
318.15 K, 444.2 kPa, x2 = 0.85 | 0.0797 ± 0.001
323.15 K, 174.7 kPa, x2 = 0.472 | 0.17 ± 0.0014
323.15 K, 192.9 kPa, x2 = 0.606 | 0.1665 ± 0.0009
323.15 K, 264.6 kPa, x2 = 0.234 | 0.094 ± 0.0009
323.15 K, 279.9 kPa, x2 = 0.772 | 0.128 ± 0.0009
323.15 K, 289.2 kPa, x2 = 0.4 | 0.0943 ± 0.0014
323.15 K, 452.8 kPa, x2 = 0.85 | 0.0797 ± 0.0009
328.15 K, 177.5 kPa, x2 = 0.472 | 0.17 ± 0.0014
328.15 K, 196 kPa, x2 = 0.606 | 0.1665 ± 0.0009
328.15 K, 269 kPa, x2 = 0.234 | 0.094 ± 0.0009
328.15 K, 284.6 kPa, x2 = 0.772 | 0.128 ± 0.0009
328.15 K, 294.1 kPa, x2 = 0.4 | 0.0943 ± 0.0014
328.15 K, 461.2 kPa, x2 = 0.85 | 0.0797 ± 0.0009
333.15 K, 180.3 kPa, x2 = 0.472 | 0.1701 ± 0.0014
333.15 K, 199.2 kPa, x2 = 0.606 | 0.1666 ± 0.0009
333.15 K, 273.4 kPa, x2 = 0.234 | 0.0941 ± 0.0029
333.15 K, 289.4 kPa, x2 = 0.772 | 0.128 ± 0.0009
333.15 K, 299 kPa, x2 = 0.4 | 0.0944 ± 0.0014
333.15 K, 469.7 kPa, x2 = 0.85 | 0.0798 ± 0.0009
338.15 K, 183.1 kPa, x2 = 0.472 | 0.1701 ± 0.0014
338.15 K, 202.3 kPa, x2 = 0.606 | 0.1666 ± 0.0009
338.15 K, 277.8 kPa, x2 = 0.234 | 0.0941 ± 0.0015
338.15 K, 294.2 kPa, x2 = 0.772 | 0.1281 ± 0.0009
338.15 K, 303.9 kPa, x2 = 0.4 | 0.0944 ± 0.0014
338.15 K, 477.9 kPa, x2 = 0.85 | 0.0798 ± 0.0009
343.15 K, 185.9 kPa, x2 = 0.472 | 0.1701 ± 0.0013
343.15 K, 205.5 kPa, x2 = 0.606 | 0.1666 ± 0.0009
343.15 K, 282.2 kPa, x2 = 0.234 | 0.0941 ± 0.0015
343.15 K, 298.9 kPa, x2 = 0.772 | 0.1281 ± 0.0009
343.15 K, 308.8 kPa, x2 = 0.4 | 0.0944 ± 0.0013
343.15 K, 486.3 kPa, x2 = 0.85 | 0.0798 ± 0.0009
348.15 K, 188.7 kPa, x2 = 0.472 | 0.1702 ± 0.0013
348.15 K, 208.6 kPa, x2 = 0.606 | 0.1667 ± 0.0009
348.15 K, 286.6 kPa, x2 = 0.234 | 0.0941 ± 0.0015
348.15 K, 303.6 kPa, x2 = 0.772 | 0.1281 ± 0.0009
348.15 K, 313.5 kPa, x2 = 0.4 | 0.0944 ± 0.0013
348.15 K, 494.6 kPa, x2 = 0.85 | 0.0798 ± 0.0008
353.15 K, 191.5 kPa, x2 = 0.472 | 0.1702 ± 0.0013
353.15 K, 211.8 kPa, x2 = 0.606 | 0.1667 ± 0.0009
353.15 K, 291 kPa, x2 = 0.234 | 0.0941 ± 0.0015
353.15 K, 308.1 kPa, x2 = 0.772 | 0.1281 ± 0.0009
353.15 K, 318.3 kPa, x2 = 0.4 | 0.0944 ± 0.0013
353.15 K, 502.9 kPa, x2 = 0.85 | 0.0798 ± 0.0008
358.15 K, 194.3 kPa, x2 = 0.472 | 0.1703 ± 0.0013
358.15 K, 214.9 kPa, x2 = 0.606 | 0.1667 ± 0.0009
358.15 K, 295.4 kPa, x2 = 0.234 | 0.0942 ± 0.0013
358.15 K, 312.6 kPa, x2 = 0.772 | 0.1282 ± 0.0009
358.15 K, 323.2 kPa, x2 = 0.4 | 0.0945 ± 0.0013
358.15 K, 511.2 kPa, x2 = 0.85 | 0.0798 ± 0.0008
363.15 K, 197.1 kPa, x2 = 0.472 | 0.1703 ± 0.0013
363.15 K, 218 kPa, x2 = 0.606 | 0.1668 ± 0.0009
363.15 K, 299.8 kPa, x2 = 0.234 | 0.0942 ± 0.0013
363.15 K, 328.1 kPa, x2 = 0.4 | 0.0945 ± 0.0013
363.15 K, 519.5 kPa, x2 = 0.85 | 0.0799 ± 0.0008
368.15 K, 200.1 kPa, x2 = 0.472 | 0.1703 ± 0.0013
368.15 K, 221.1 kPa, x2 = 0.606 | 0.1668 ± 0.0009
368.15 K, 304.1 kPa, x2 = 0.234 | 0.0942 ± 0.0013
368.15 K, 332.9 kPa, x2 = 0.4 | 0.0945 ± 0.0013
368.15 K, 527.7 kPa, x2 = 0.85 | 0.0799 ± 0.0008
373.15 K, 202.9 kPa, x2 = 0.472 | 0.1704 ± 0.0012
373.15 K, 224.3 kPa, x2 = 0.606 | 0.1669 ± 0.0009
373.15 K, 308.5 kPa, x2 = 0.234 | 0.0942 ± 0.0013
373.15 K, 337.7 kPa, x2 = 0.4 | 0.0945 ± 0.0012
373.15 K, 535.9 kPa, x2 = 0.85 | 0.0799 ± 0.0008
378.15 K, 205.7 kPa, x2 = 0.472 | 0.1704 ± 0.0012
378.15 K, 227.5 kPa, x2 = 0.606 | 0.1669 ± 0.0008
378.15 K, 313 kPa, x2 = 0.234 | 0.0942 ± 0.0012
378.15 K, 342.6 kPa, x2 = 0.4 | 0.0945 ± 0.0012
378.15 K, 544.1 kPa, x2 = 0.85 | 0.0799 ± 0.0008
383.15 K, 208.5 kPa, x2 = 0.472 | 0.1704 ± 0.0012
383.15 K, 230.6 kPa, x2 = 0.606 | 0.1669 ± 0.0008
383.15 K, 317.4 kPa, x2 = 0.234 | 0.0943 ± 0.0012
383.15 K, 347.4 kPa, x2 = 0.4 | 0.0946 ± 0.0012
383.15 K, 552.4 kPa, x2 = 0.85 | 0.0799 ± 0.0008
